For test [1], the system named is human breast cancer HER2 IHC 3+ PDX model. The experiment in a line: In vivo efficacy of GQ01 with TKIs in human breast cancer PDX model (Example 1). Set-up: species or system NOD SCID mice. Conditions: GQ01 5 mg/kg Q3W×2, combination 5 + 20 mg/kg; for TGI (%): day 77; for Tumor volume (mm^3), Mean ± SEM: end day (day 77). How it is done: I. The tumor tissues of PDX model were extracted from the tumor-bearing mice and then transferred to culture medium, cut into small fragments, and inoculated subcutaneously at the right flank of SPF female NOD SCID mice aged 6~8 weeks.
II. The tumor diameter was measured with a caliper and the tumor volume was calculated according to the formula V=0.5 a×b^2 (wherein a is the long diameter of the tumor and b is the short diameter of the tumor). […] The tumor volume of mice in each group was measured twice a week.

The subject of test [2] is breast cancer HER2 IHC 3+ PDX model (primary resistance to palbociclib). The experiment in a line: In vivo efficacy of GQ01 with TKIs in human breast cancer PDX model, primary resistance to palbociclib (Example 2). The arrangement: species or system NCG mice. Conditions: GQ01 5 mg/kg on day 0 and day 28; for TGI (%): day 49; for Tumor volume (mm^3), Mean ± SEM: end day (day 49). How it is done: The model was derived from a patient with Stage III invasive breast cancer who developed metastases to lung and bone after surgery.
I. The tumor tissues of PDX model were extracted from the tumor-bearing mice and were transferred to culture medium, cut into small fragments, and inoculated subcutaneously in the right flank of SPF female NCG mice aged 6~8 weeks.
II. 30 days after inoculation, the tumor diameter was measured with a caliper and the tumor volume was calculated according to the formula V=0.5 a×b^2 (wherein a is the long diameter of the tumor and b is the short diameter of the tumor). […] Each group included 6 mice. The day of first administration was defined as day 0. […] The tumor volume of mice was measured twice a week.

The subject of test [3] is human breast cancer HER2 IHC 3+ PDX model (acquired resistance to trastuzumab and pertuzumab, primary resistance to pyrotinib). The test can be described thus: In vivo efficacy of GQ01 with TKIs in human breast cancer PDX model resistant to trastuzumab, pertuzumab and pyrotinib (Example 3). Set-up: species or system NCG mice. Conditions: for TGI (%): day 42; for TGI (%) / Tumor volume (mm^3), Mean ± SEM: GQ01 3 mg/kg on day 0 and 5 mg/kg on day 21; for Tumor volume (mm^3), Mean ± SEM: end day (day 42). Here is the method:
This model was derived from a patient with Stage III invasive breast cancer, who was assessed as acquired drug resistance to trastuzumab and pertuzumab and primary resistance to pyrotinib based on the history of treatments.
I. The tumor tissues of PDX model were extracted from the tumor-bearing mice and were transferred to culture medium, cut into small fragments, and then inoculated subcutaneously in the right flank of SPF female NCG mice aged 6~8 weeks.
II. 29 days after inoculation, the tumor diameter was measured with a caliper and the tumor volume was calculated according to the formula V=0.5 a×b2 (wherein a is the long diameter of the tumor and b is the short diameter of the tumor). […] Each group included 6 mice. The day of first administration was defined as day 0. […] The tumor volume of mice in each group was measured twice a week.

For test [4], the system named is gastric cancer HER2 IHC 3+ PDX model. The test can be described thus: In vivo efficacy of GQ01 with TKIs in human gastric cancer PDX model (Example 4). Set-up: species or system Nu/Nu mice. Conditions: for TGI (%): day 35; for TGI (%) / Tumor volume (mm^3), Mean ± SEM: GQ01 10 mg/kg single dose; for Tumor volume (mm^3), Mean ± SEM: end day (day 35); for PD (response status, share of animals): 6 mice per group, GQ01 10 mg/kg. Here is the method:
I. The tumor tissues of PDX model were extracted from the tumor-bearing mice and were transferred to RPMI-1640 culture medium, cut into small fragments, and then inoculated subcutaneously in the right flank of SPF female Nu/Nu mice aged 6~8 weeks.
II. 14 days after inoculation, the tumor diameter was measured with a caliper and the tumor volume was calculated according to the formula V=0.5 a×b2 (wherein a is the long diameter of the tumor and b is the short diameter of the tumor). […] Each group included 6 mice. The day of first administration was defined as day 0. […] The tumor volume of mice in each group was measured twice a week.
The response status were calculated based on the diameters or disappearance of target lesions.

[5] abbreviates: neratinib 20 mg/kg QD×2W+QD×2W, listed as neratinib.
[6] abbreviates: pyrotinib 20 mg/kg QD×2W+QD×2W, listed as pyrotinib.
Setting [7] is: pyrotinib 20 mg/kg QD day 0-13, 28-41, combination 5 + 20 mg/kg.
The mark [8] stands for this setting: pyrotinib 20 mg/kg QD day 0-13, 28-41, combination 5 + 20 mg/kg, listed as pyrotinib.
The mark [9] stands for this setting: pyrotinib 20 mg/kg QD day 0-13, 21-34, combination 3/5 + 20 mg/kg.
Setting [10] is: pyrotinib 20 mg/kg QD day 0-13, 21-34, combination 3/5 + 20 mg/kg, listed as pyrotinib.
Where [11] appears, read: pyrotinib 20 mg/kg QD 2 weeks, combination 10 + 20 mg/kg.
[12] abbreviates: pyrotinib 20 mg/kg QD 2 weeks, combination 10 + 20 mg/kg, listed as pyrotinib.
The mark [13] stands for this setting: tucatinib 20 mg/kg BID×2W+BID×2W.
Where [14] appears, read: tucatinib 20 mg/kg BID×2W+BID×2W, listed as tucatinib.
[15] abbreviates: tucatinib 50 mg/kg QD day 0-13, 28-41, combination 5 + 50 mg/kg.
Setting [16] is: tucatinib 50 mg/kg QD day 0-13, 28-41, combination 5 + 50 mg/kg, listed as tucatinib.
[17] abbreviates: tucatinib 50 mg/kg QD day 0-13, 21-34, combination 3/5 + 50 mg/kg.
The mark [18] stands for this setting: tucatinib 50 mg/kg QD day 0-13, 21-34, combination 3/5 + 50 mg/kg, listed as tucatinib.
Setting [19] is: tucatinib 50 mg/kg QD 2 weeks, combination 10 + 50 mg/kg.
Where [20] appears, read: tucatinib 50 mg/kg QD 2 weeks, combination 10 + 50 mg/kg, listed as tucatinib.

In the case of `CCOc1cc2ncc(C#N)c(Nc3ccc(OCc4ccccn4)c(Cl)c3)c2cc1NC(=O)/C=C/CN(C)C` [Neratinib, neratinib], in test [1] (neratinib 20 mg/kg QD×2W+QD×2W), the “TGI (%)” value is reported as 61.80% and the “Tumor volume (mm^3), Mean ± SEM” value is 724 ± 114 mm^3. Moreover, in test [1] (setting [5]), the “TGI (%)” value is 61.80% and the “Tumor volume (mm^3), Mean ± SEM” value came to 724 mm^3.
`CCOc1cc2ncc(C#N)c(Nc3ccc(OCc4ccccn4)c(Cl)c3)c2cc1NC(=O)/C=C/[C@H]1CCCN1C` [Pyrotinib, pyrotinib]: the “TGI (%)” value in test [1] (pyrotinib 20 mg/kg QD×2W+QD×2W) is 34.93%; in test [1] (setting [6]), 34.93%; in test [2] (setting [7]), −2.65%; in test [2] (setting [8]), −2.65%; in test [3] (setting [9]), 10.08%; in test [3] (setting [10]), 10.08%. Further, the “TGI (%)” value in test [4] (setting [11]) and in test [4] (setting [12]) was 83.09% in each case. For the same compound, the “Tumor volume (mm^3), Mean ± SEM” value in test [1] (pyrotinib 20 mg/kg QD×2W+QD×2W) is on record as 1108 ± 202 mm^3; in test [1] (setting [6]), 1108 mm^3; in test [2] (setting [7]), 740.71 ± 146.76 mm^3; in test [2] (setting [8]), 741 mm^3; in test [3] (setting [9]), 1333.21 ± 217.85 mm^3; in test [3] (setting [10]), 1333 mm^3. The “Tumor volume (mm^3), Mean ± SEM” value is 233.72 ± 39.7 mm^3 in test [4] (setting [11]) and 234 mm^3 in test [4] (setting [12]). Further, the “PD (response status, share of animals)” value in test [4] (pyrotinib arm table, pyrotinib 20 mg/kg, dash = no animal in this class) came to 83.33%.
Consider `Cc1cc(Nc2ncnc3ccc(NC4=NC(C)(C)CO4)cc23)ccc1Oc1ccn2ncnc2c1` [Tucatinib, tucatinib], for which the “TGI (%)” value was 51.08% in test [1] (setting [13]); 51.08% in test [1] (setting [14]); −1.09% in test [2] (setting [15]); −1.09% in test [2] (setting [16]); −6.46% in test [3] (setting [17]); −6.46% in test [3] (setting [18]). Besides, the “TGI (%)” value in test [4] (setting [19]) and in test [4] (setting [20]) was 48.94% throughout. Besides, the “Tumor volume (mm^3), Mean ± SEM” value in test [1] (setting [13]) was 879 ± 216 mm^3; in test [1] (setting [14]), 879 mm^3; in test [2] (setting [15]), 732.33 ± 137.71 mm^3; in test [2] (setting [16]), 732 mm^3; in test [3] (setting [17]), 1557.77 ± 178.71 mm^3; in test [3] (setting [18]) it was 1558 mm^3. Moreover, the “Tumor volume (mm^3), Mean ± SEM” value in test [4] (setting [19]) is on record as 399.97 ± 43.87 mm^3; in test [4] (setting [20]) it was 400 mm^3. The “response of the model to treatment, in words” value in test [3] (tucatinib 50 mg/kg QD day 0-13, 21-34) was “doesn't respond”. In test [4] (tucatinib arm table, tucatinib 50 mg/kg), the “PD (response status, share of animals)” value is 100%.

The record behind these values is patent US20260263624A1, “COMBINATION OF ANTIBODY-DRUG CONJUGATE AND CANCER THERAPY, AND USE THEREOF” (GENEQUANTUM HEALTHCARE (SUZHOU) CO., LTD., priority 2023, published 2026).
